In US11731961B2, “Phenyl propionic acid derivatives and uses thereof” (ILDONG PHARMACEUTICAL CO., LTD., priority 2016, dated 2023):

The compounds below were run against T1, GPR40 (Homo sapiens, UniProt O14842) (assay: Cell-Based Aequorin Assay (agonistic activity)). Conditions: 1 μM test compound; percentage of the activity of the reference agonist at its EC100 concentration.
T1 construct: expressed in transfected cells
T1 sequence (O14842 whole entry): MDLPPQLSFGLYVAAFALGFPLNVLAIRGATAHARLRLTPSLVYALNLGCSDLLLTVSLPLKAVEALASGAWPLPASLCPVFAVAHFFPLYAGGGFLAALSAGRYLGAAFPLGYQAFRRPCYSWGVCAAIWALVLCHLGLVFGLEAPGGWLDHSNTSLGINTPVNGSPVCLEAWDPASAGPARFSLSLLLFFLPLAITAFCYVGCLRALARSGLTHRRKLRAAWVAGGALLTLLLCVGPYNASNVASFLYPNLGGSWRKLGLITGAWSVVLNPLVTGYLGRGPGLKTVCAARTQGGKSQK
Description: <In Vitro Assay 1> Cell-Based Aequorin Assay
Recombinant cells grown 18 h prior to the test in media without antibiotics were detached by gentle flushing with PBS-EDTA (5 mM EDTA), recovered by centrifugation and resuspended in “assay buffer” (DMEM/HAM's F12 with HEPES+0.1% BSA fatty-acid free). Cells were incubated at room temperature for at least 4 h with Coelenterazine (Molecular Probes). Dose response curves with the reference compounds were performed before testing the compounds.
For agonistic activity testing, 50 μL of cell suspension was injected on 96-well plates with plated 50 μL of test compounds or reference agonist. The resulting emission of light was recorded using the Hamamatsu Functional Drug Screening System 6000 (FDSS 6000).
To standardize the emission of recorded light (determination of the “100% signal”) across plates and across different experiments, some of the wells contained the reference agonist at its EC100 obtained during the test validation. Agonistic activities of test compounds were expressed as a percentage of the activity of the reference agonist at its EC100 concentration.
`Cc1cc(OCCCS(C)(=O)=O)cc(C)c1-c1cccc(COc2ccc3c(c2)OC[C@H]3CC(=O)O)c1` [Comparative Example 1, reference compound] was tested, and the “Agonistic activity (%, 1 μM)” value was “+++ (+++: over 70)”.
In the case of `CC#C[C@@H](CC(=O)O)c1ccc(O[C@@H]2CCc3c(-c4ccc(OC5CCS(=O)(=O)CC5)nc4)ccc(F)c32)cc1` [Example 1, (S)-3-(4-(((R)-4-(6-((1,1-Dioxidotetrahydro-2H-thiopyran-4-yl)oxy)pyridin-3-VI)-7-fluoro-2,3-dihydro-1H-inden-1-yl)oxy)phenyl)hex-4-ynoic acid], the “Agonistic activity (%, 1 μM)” value is reported as “+ (+: under 40)”.
With `CC#C[C@@H](CC(=O)O)c1ccc(O[C@@H]2CCc3c(-c4ccc(OCCN5CCS(=O)(=O)CC5)nc4)ccc(F)c32)cc1` [Example 3, (S)-3-(4-(((R)-4-(6-(2-(1,1-Dioxidothiomorpholino)ethoxy)pyridin-3-yl)-7-fluoro-2,3-dihydro-1H-inden-1-yl)oxy)phenyl)hex-4-ynoic acid] the “Agonistic activity (%, 1 μM)” value was “+ (+: under 40)”.
For `CC#C[C@@H](CC(=O)O)c1ccc(O[C@@H]2CCc3c(-c4ccc(O[C@@H]5CCOC5)nc4)ccc(F)c32)cc1` [Example 5, (S)-3-(4-(((R)-7-Fluoro-4-(6-(((R)-tetrahydrofuran-3-yl)oxy)pyridin-3-yl)-2,3-dihydro-1H-inden-1-yl)oxy)phenyl)hex-4-ynoic acid], the “Agonistic activity (%, 1 μM)” value was “+++ (+++: over 70)”.
For `CC#C[C@@H](CC(=O)O)c1ccc(O[C@@H]2CCc3c(-c4ccc(OC5CCOCC5)nc4)ccc(F)c32)cc1` [Example 6, (S)-3-(4-(((R)-7-Fluoro-4-(6-((tetrahydro-2H-pyran-4-yl)oxy)pyridin-3-yl)-2,3-dihydro-1H-inden-1-yl)oxy)phenyl)hex-4-ynoic acid], the “Agonistic activity (%, 1 μM)” value was “+++ (+++: over 70)”.
`CC#C[C@@H](CC(=O)O)c1ccc(O[C@@H]2CCc3c(-c4ccc(O[C@H]5CCOC5)nc4)ccc(F)c32)cc1` [Example 7, (S)-3-(4-(((R)-7-Fluoro-4-(6-(((S)-tetrahydrofuran-3-yl)oxy)pyridin-3-yl)-2,3-dihydro-1H-inden-1-yl)oxy)phenyl)hex-4-ynoic acid] was tested, and the “Agonistic activity (%, 1 μM)” value was “+++ (+++: over 70)”.
`CC#C[C@@H](CC(=O)O)c1ccc(O[C@@H]2CCc3c(-c4cnc(O[C@@H]5CCOC5)cc4C)ccc(F)c32)cc1` [Example 8, (S)-3-(4-(((R)-7-Fluoro-4-(4-methyl-6-(((R)-tetrahydrofuran-3-yl)oxy)pyridin-3-yl)-2,3-dihydro-1H-inden-1-yl)oxy)phenyl)hex-4-ynoic acid] was tested, and the “Agonistic activity (%, 1 μM)” value was “++ (++: 40-70)”.
`CC#C[C@@H](CC(=O)O)c1ccc(O[C@@H]2CCc3c(-c4cncc(O[C@@H]5CCOC5)c4)ccc(F)c32)cc1` [Example 15, (S)-3-(4-(((R)-7-Fluoro-4-(5-(((R)-tetrahydrofuran-3-yl)oxy)pyridin-3-yl)-2,3-dihydro-1H-inden-1-yl)oxy)phenyl)hex-4-ynoic acid] was tested, and the “Agonistic activity (%, 1 μM)” value was “++ (++: 40-70)”.
`CC#C[C@@H](CC(=O)O)c1ccc(O[C@@H]2CCc3c(-c4cncc(OC5CCOCC5)c4)ccc(F)c32)cc1` [Example 16, (S)-3-(4-(((R)-7-Fluoro-4-(5-((tetrahydro-2H-pyran-4-yl)oxy)pyridin-3-yl)-2,3-dihydro-1H-inden-1-yl)oxy)phenyl)hex-4-ynoic acid] was tested, and the “Agonistic activity (%, 1 μM)” value was “++ (++: 40-70)”.
In the case of `CC#C[C@@H](CC(=O)O)c1ccc(O[C@@H]2CCc3c(-c4cnc(OC5CCOCC5)c(Cl)c4)ccc(F)c32)cc1` [Example 17, (S)-3-(4-(((R)-4-(5-Chloro-6-((tetrahydro-2H-pyran-4-yl)oxy)pyridin-3-yl)-7-fluoro-2,3-dihydro-1H-inden-1-yl)oxy)phenyl)hex-4-ynoic acid], the “Agonistic activity (%, 1 μM)” value is reported as “+++ (+++: over 70)”.
For `CC#C[C@@H](CC(=O)O)c1ccc(O[C@@H]2CCc3c(-c4cnc(O[C@@H]5CCOC5)c(C#N)c4)ccc(F)c32)cc1` [Example 18, (S)-3-(4-(((R)-4-(5-Cyano-6-(((R)-tetrahydrofuran-3-yl)oxy)pyridin-3-yl)-7-fluoro-2,3-dihydro-1H-inden-1-yl)oxy)phenyl)hex-4-ynoic acid], the “Agonistic activity (%, 1 μM)” value was “+++ (+++: over 70)”.
`CC#C[C@@H](CC(=O)O)c1ccc(O[C@@H]2CCc3c(-c4cnc(OC5CCOCC5)c(C#N)c4)ccc(F)c32)cc1` [Example 19, (S)-3-(4-(((R)-4-(5-Cyano-6-((tetrahydro-2H-pyran-4-yl)oxy)pyridin-3-yl)-7-fluoro-2,3-dihydro-1H-inden-1-yl)oxy)phenyl)hex-4-ynoic acid] was tested, and the “Agonistic activity (%, 1 μM)” value was “+++ (+++: over 70)”.
`CC#C[C@@H](CC(=O)O)c1ccc(O[C@@H]2CCc3c2ccc(C#N)c3-c2ccc(O[C@@H]3CCOC3)nc2)cc1` [Example 20, (S)-3-(4-(((R)-5-Cyano-4-(6-(((R)-tetrahydrofuran-3-yl)oxy)pyridin-3-yl)-2,3-dihydro-1H-inden-1-yl)oxy)phenyl)hex-4-ynoic acid] was tested, and the “Agonistic activity (%, 1 μM)” value was “+++ (+++: over 70)”.
In the case of `CC#C[C@@H](CC(=O)O)c1ccc(O[C@@H]2CCc3c2ccc(F)c3-c2ccc(O[C@@H]3CCOC3)nc2)cc1` [Example 21, (S)-3-(4-(((R)-5-Fluoro-4-(6-(((R)-tetrahydrofuran-3-yl)oxy)pyridin-3-yl)-2,3-dihydro-1H-inden-1-yl)oxy)phenyl)hex-4-ynoic acid], the “Agonistic activity (%, 1 μM)” value is reported as “+++ (+++: over 70)”.
With `CC#C[C@@H](CC(=O)O)c1ccc(O[C@@H]2CCc3c2ccc(F)c3-c2ccc(OC3CCOCC3)nc2)cc1` [Example 24, (S)-3-(4-(((R)-5-Fluoro-4-(6-((tetrahydro-2H-pyran-4-yl)oxy)pyridin-3-yl)-2,3-dihydro-1H-inden-1-yl)oxy)phenyl)hex-4-ynoic acid] the “Agonistic activity (%, 1 μM)” value was “+++ (+++: over 70)”.
